From patent publication US10376520B2, “Methods for the treatment of cardiovascular disorders” (Galapagos NV, priority 2015, dated 2019)

Test system: RA patients
Assay: Atherogenic index, Study 2 (RA patients, monotherapy)
Assay type: in vivo, human
Procedure: As used herein, the term ‘atherogenic index’ refers to
Double-blind, placebo-controlled, monotherapy study in subjects with moderately to severely active RA who have an inadequate response to methotrexate (MTX) (oral or parenteral).
Twelve weeks of treatment with Compound 1 (dosed as a [Compound 1:HCl:3H2O]) at 50 mg, 100 mg, or 200 mg q.d.; or placebo. At Week 12, all subjects on placebo and the subjects on the 50 mg dose who have not achieved 20% improvement in swollen joint count (SJC66) and tender joint count (TJC68) will be assigned to 100 mg q.d. in a blinded fashion and will continue treatment until Week 24. Subjects in the other groups will maintain their randomized treatment until Week 24.
The atherogenic index has been identified to be a good predictor of cardiovascular disorders risks and is calculated as follows: […]

[1] = 50 mg q.d. non responders switching to 100 mg q.d., week 1
[2] = 50 mg q.d. non responders switching to 100 mg q.d., week 2
[3] = 50 mg q.d. non responders switching to 100 mg q.d., week 4
[4] = 50 mg q.d. non responders switching to 100 mg q.d., week 8
[5] = 50 mg q.d. non responders switching to 100 mg q.d., week 12
[6] = 50 mg q.d. non responders switching to 100 mg q.d., week 16
[7] = 50 mg q.d. non responders switching to 100 mg q.d., week 20
[8] = 50 mg q.d. non responders switching to 100 mg q.d., week 24

O=C(Nc1nc2cccc(-c3ccc(CN4CCS(=O)(=O)CC4)cc3)n2n1)C1CC1 [Compound 1, cyclopropanecarboxylic acid {5-[4-(1,1-dioxo-thiomorpholin-4-ylmethyl)-phenyl]-[1,2,4]triazolo[1,5-a]pyridin-2yl}-amide]
Atherogenic index Mean percentage CFB - 24 weeks results [1]: −0.49% | Atherogenic index Median CFB - 24 weeks results [1]: 0.00 mmol/L | Atherogenic index Median percentage CFB - 24 weeks results [1]: 0.00% | Atherogenic index Mean percentage CFB - 24 weeks results [2]: 0.40% | Atherogenic index Median CFB - 24 weeks results [2]: -0.10 mmol/L | Atherogenic index Median percentage CFB - 24 weeks results [2]: −2.38% | Atherogenic index Median CFB - 24 weeks results [3]: -0.20 mmol/L | Atherogenic index Median percentage CFB - 24 weeks results [3]: −6.67% | Atherogenic index Mean percentage CFB - 24 weeks results [4]: 3.03% | Atherogenic index Median CFB - 24 weeks results [4]: -0.20 mmol/L | Atherogenic index Median percentage CFB - 24 weeks results [4]: −6.82% | Atherogenic index Mean percentage CFB - 24 weeks results [5]: −2.71% | Atherogenic index Median CFB - 24 weeks results [5]: -0.20 mmol/L | Atherogenic index Median percentage CFB - 24 weeks results [5]: −5.88% | Atherogenic index Mean percentage CFB - 24 weeks results [6]: −3.31% | Atherogenic index Median CFB - 24 weeks results [6]: -0.20 mmol/L | Atherogenic index Median percentage CFB - 24 weeks results [6]: −5.00% | Atherogenic index Mean percentage CFB - 24 weeks results [7]: −3.58% | Atherogenic index Median CFB - 24 weeks results [7]: -0.20 mmol/L | Atherogenic index Median percentage CFB - 24 weeks results [7]: −5.88% | Atherogenic index Mean percentage CFB - 24 weeks results [8]: −7.04% | Atherogenic index Median CFB - 24 weeks results [8]: -0.30 mmol/L | Atherogenic index Median percentage CFB - 24 weeks results [8]: −9.97% | Atherogenic index Mean percentage CFB - 24 weeks results (50 mg q.d. responders, week 1): −0.34% | Atherogenic index Median CFB - 24 weeks results (50 mg q.d. responders, week 1): -0.10 mmol/L | Atherogenic index Mean percentage CFB - 24 weeks results (50 mg q.d. responders, week 2): −3.56% | Atherogenic index Median CFB - 24 weeks results (50 mg q.d. responders, week 2): -0.05 mmol/L | Atherogenic index Mean percentage CFB - 24 weeks results (50 mg q.d. responders, week 4): −2.87% | Atherogenic index Median CFB - 24 weeks results (50 mg q.d. responders, week 4): -0.25 mmol/L | Atherogenic index Median percentage CFB - 24 weeks results (50 mg q.d. responders, week 4): −7.69% | Atherogenic index Mean percentage CFB - 24 weeks results (50 mg q.d. responders, week 8): −2.06% | Atherogenic index Median CFB - 24 weeks results (50 mg q.d. responders, week 8): -0.10 mmol/L | Atherogenic index Mean percentage CFB - 24 weeks results (50 mg q.d. responders, week 12): 0.89% | Atherogenic index Median CFB - 24 weeks results (50 mg q.d. responders, week 12): -0.10 mmol/L | Atherogenic index Median percentage CFB - 24 weeks results (50 mg q.d. responders, week 12): −2.56% | Atherogenic index Mean percentage CFB - 24 weeks results (50 mg q.d. responders, week 16): 1.59% | Atherogenic index Median CFB - 24 weeks results (50 mg q.d. responders, week 16): 0.00 mmol/L | Atherogenic index Median percentage CFB - 24 weeks results (50 mg q.d. responders, week 16): 0.00% | Atherogenic index Median CFB - 24 weeks results (50 mg q.d. responders, week 20): -0.20 mmol/L | Atherogenic index Median percentage CFB - 24 weeks results (50 mg q.d. responders, week 20): −4.04% | Atherogenic index Median CFB - 24 weeks results (50 mg q.d. responders, week 24): -0.20 mmol/L | Atherogenic index Median percentage CFB - 24 weeks results (50 mg q.d. responders, week 24): −5.77% | Atherogenic index Mean CFB - 12 weeks results (50 mg q.d., week 1): 0.00 mmol/L | Atherogenic index Mean percentage CFB - 12 weeks results (50 mg q.d., week 1): −0.38% | Atherogenic index Median CFB - 12 weeks results (50 mg q.d., week 1): 0.00 mmol/L | Atherogenic index Median percentage CFB - 12 weeks results (50 mg q.d., week 1): 0.00% | Atherogenic index Mean CFB - 12 weeks results (50 mg q.d., week 2): -0.10 mmol/L | Atherogenic index Median CFB - 12 weeks results (50 mg q.d., week 2): -0.10 mmol/L | Atherogenic index Median percentage CFB - 12 weeks results (50 mg q.d., week 2): −2.38% | Atherogenic index Mean CFB - 12 weeks results (50 mg q.d., week 4): -0.13 mmol/L | Atherogenic index Mean percentage CFB - 12 weeks results (50 mg q.d., week 4): −2.63% | Atherogenic index Median CFB - 12 weeks results (50 mg q.d., week 4): -0.20 mmol/L | Atherogenic index Median percentage CFB - 12 weeks results (50 mg q.d., week 4): −7.69% | Atherogenic index Mean CFB - 12 weeks results (50 mg q.d., week 8): -0.03 mmol/L | Atherogenic index Mean percentage CFB - 12 weeks results (50 mg q.d., week 8): −0.95% | Atherogenic index Median CFB - 12 weeks results (50 mg q.d., week 8): -0.10 mmol/L | Atherogenic index Median percentage CFB - 12 weeks results (50 mg q.d., week 8): −2.70% | Atherogenic index Mean CFB - 12 weeks results (50 mg q.d., week 12): 0.01 mmol/L | Atherogenic index Mean percentage CFB - 12 weeks results (50 mg q.d., week 12): 0.09% | Atherogenic index Median CFB - 12 weeks results (50 mg q.d., week 12): -0.10 mmol/L | Atherogenic index Median percentage CFB - 12 weeks results (50 mg q.d., week 12): −3.85% | Atherogenic index Mean CFB - 12 weeks results (100 mg q.d., week 1): -0.05 mmol/L | Atherogenic index Mean percentage CFB - 12 weeks results (100 mg q.d., week 1): −0.84% | Atherogenic index Mean percentage CFB - 24 weeks results (100 mg q.d., week 1): −0.84% | Atherogenic index Median CFB - 12 weeks results (100 mg q.d., week 1): 0.00 mmol/L | Atherogenic index Median CFB - 24 weeks results (100 mg q.d., week 1): 0.00 mmol/L | Atherogenic index Median percentage CFB - 12 weeks results (100 mg q.d., week 1): 0.00% | Atherogenic index Median percentage CFB - 24 weeks results (100 mg q.d., week 1): 0.00% | Atherogenic index Mean CFB - 12 weeks results (100 mg q.d., week 2): -0.11 mmol/L | Atherogenic index Mean percentage CFB - 12 weeks results (100 mg q.d., week 2): −2.82% | Atherogenic index Mean percentage CFB - 24 weeks results (100 mg q.d., week 2): −2.82% | Atherogenic index Median CFB - 12 weeks results (100 mg q.d., week 2): -0.20 mmol/L | Atherogenic index Median CFB - 24 weeks results (100 mg q.d., week 2): -0.20 mmol/L | Atherogenic index Median percentage CFB - 12 weeks results (100 mg q.d., week 2): −6.25% | Atherogenic index Median percentage CFB - 24 weeks results (100 mg q.d., week 2): −6.25% | Atherogenic index Mean CFB - 12 weeks results (100 mg q.d., week 4): -0.19 mmol/L | Atherogenic index Mean percentage CFB - 12 weeks results (100 mg q.d., week 4): −4.17% | Atherogenic index Mean percentage CFB - 24 weeks results (100 mg q.d., week 4): −4.17%
